# According to patent US8778941B2, “TRPM8 antagonists and their use in treatments” (AMGEN Inc., priority 2011, dated 2014):
# pIC50: −log10 of the molar value.
# Target: T1, human TRPM8 (Homo sapiens, UniProt Q7Z2W7)
# T1 construct: expressed in transfected cells; host or cells: Chinese hamster ovary (CHO) cells, T-REx tetracycline-inducible expression system (Invitrogen), co-transfected with pcDNA3.1 jellyfish aequorin
# Experiment: Luminescence readout assay for measuring intracellular calcium (aequorin), hTRPM8 antagonism
# Type: cell-based
# Settings: CHO cell line expressing human TRPM8 and aequorin; activation by icilin, L-menthol or cold buffer (table does not say which)
# Description: Luminescence Readout Assay for Measuring Intracellular Calcium.
# A stable Chinese hamster ovary cell line expressing human TRPM8 was generated using tetracycline inducible T-REx™ expression system from Invitrogen, Inc. (Carlsbad, Calif.). […] Twenty four hours before the assay, cells were seeded in 96-well plates and TRPM8 expression was induced with 0.5 μg/mL tetracycline. […] Potential antagonists were added 2.5 min prior to the addition of agonist, […], 100 µM L-menthol, or 1 min prior to the addition of cold buffer (<10° C.). The luminescence was measured by a CCD camera based FLASH-luminometer built by Amgen, Inc. A cooling device attached to FLASH luminometer was used for cold activation.
# T1 sequence (Q7Z2W7 whole entry): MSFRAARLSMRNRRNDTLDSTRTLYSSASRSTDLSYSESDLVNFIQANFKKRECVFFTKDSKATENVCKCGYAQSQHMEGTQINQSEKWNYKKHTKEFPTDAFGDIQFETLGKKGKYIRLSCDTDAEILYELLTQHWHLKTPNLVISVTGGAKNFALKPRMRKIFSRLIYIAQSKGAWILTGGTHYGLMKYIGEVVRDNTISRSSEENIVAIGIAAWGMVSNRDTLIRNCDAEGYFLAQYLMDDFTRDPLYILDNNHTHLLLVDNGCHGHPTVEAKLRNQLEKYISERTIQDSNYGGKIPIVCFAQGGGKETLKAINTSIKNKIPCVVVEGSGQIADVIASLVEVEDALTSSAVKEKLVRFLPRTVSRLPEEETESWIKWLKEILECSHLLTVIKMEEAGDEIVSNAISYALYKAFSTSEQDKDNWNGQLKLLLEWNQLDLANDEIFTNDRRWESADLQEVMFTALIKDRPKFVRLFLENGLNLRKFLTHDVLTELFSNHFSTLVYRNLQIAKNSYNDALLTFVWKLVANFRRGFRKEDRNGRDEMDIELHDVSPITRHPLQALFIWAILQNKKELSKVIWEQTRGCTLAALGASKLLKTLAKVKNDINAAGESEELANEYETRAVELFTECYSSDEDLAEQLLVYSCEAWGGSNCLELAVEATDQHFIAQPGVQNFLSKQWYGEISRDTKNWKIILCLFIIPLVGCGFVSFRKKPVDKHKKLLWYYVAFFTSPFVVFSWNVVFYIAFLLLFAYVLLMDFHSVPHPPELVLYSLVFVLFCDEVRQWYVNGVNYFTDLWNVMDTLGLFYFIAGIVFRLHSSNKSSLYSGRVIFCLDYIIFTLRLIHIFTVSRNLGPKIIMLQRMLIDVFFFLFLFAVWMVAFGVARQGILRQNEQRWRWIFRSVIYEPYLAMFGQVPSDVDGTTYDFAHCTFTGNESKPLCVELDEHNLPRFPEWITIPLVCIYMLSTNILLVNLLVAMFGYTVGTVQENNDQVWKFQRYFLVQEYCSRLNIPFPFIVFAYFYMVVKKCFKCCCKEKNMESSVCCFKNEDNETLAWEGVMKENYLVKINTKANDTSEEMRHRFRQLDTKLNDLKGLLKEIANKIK
row,pIC50,Compound
1,6.17,"O=C(NC1CCOC1)N[C@@H](c1ccc(C(F)(F)F)cc1)c1ncccc1C(F)(F)F (stereo partly drawn) [Example 56, 1-(tetrahydrofuran-3-yl)-3-((S)-(4-(trifluoro-methyl)-phenyl)(3-(trifluoro-methyl)-pyridin-2-yl)-methyl)urea]"
2,5.89,"Cc1ccc([N+](=O)[O-])c(NC(=O)N[C@@H](c2ccc(C(F)(F)F)cc2)c2ncccc2C(F)(F)F)c1 [Example 143, (S)-1-(5-methyl-2-nitrophenyl)-3-((4-(trifluoro-methyl)-phenyl)(3-(trifluoro-methyl)-pyridin-2-yl)-methyl)urea (2,2,2-trifluoro-acetate)]"
3,6.17,"CCc1cccc(C(C)C)c1NC(=O)N[C@@H](c1ccc(C(F)(F)F)cc1)c1ncccc1C(F)(F)F [Example 91, (S)-1-(2-ethyl-6-isopropylphenyl)-3-((4-(trifluoro-methyl)-phenyl)(3-(trifluoro-methyl)-pyridin-2-yl)-methyl)urea (2,2,2-trifluoro-acetate)]"
4,6.79,"COC(=O)c1ccccc1NC(=O)N[C@@H](c1ccc(C(F)(F)F)cc1)c1ncccc1F [Example 118, (S)-methyl 2-(3-((3-fluoro-pyridin-2-yl)-(4-(trifluoro-methyl)-phenyl)-methyl)-ureido)-benzoate]"
5,7.39,"CCc1ccc([C@H](NC(=O)Nc2cccnc2)c2ncccc2C(F)(F)F)cc1 [Example 27, (S)-1-((4-ethylphenyl)-(3-(trifluoro-methyl)-pyridin-2-yl)-methyl)-3-(pyridin-3-yl)-urea]"
6,6.91,"CC(C)(C)NC(=O)N[C@@H](c1ccc(C(F)(F)F)cc1)c1ncccc1Br [Example 41, (S)-1-((3-bromopyridin-2-yl)(4-(trifluoro-methyl)-phenyl)-methyl)-3-(tert-butyl)-urea]"
7,7.29,"O=C(Nc1cccnc1)N[C@@H](c1ccc(Cl)c(Cl)c1)c1ncccc1C(F)(F)F [Example 13, (S)-1-((3,4-dichlorophenyl) (3-(trifluoro-methyl)-pyridin-2-yl)-methyl)-3-(pyridin-3-yl)-urea]"
8,5.78,"COc1ncc(NC(=O)N[C@@H](c2ccc(C(F)(F)F)cc2)c2ncccc2F)cn1 [Example 160, (S)-1-((3-fluoropyridin-2-yl)(4-(trifluoro-methyl)-phenyl)-methyl)-3-(2-methoxy-pyrimidin-5-yl)urea]"
9,6.15,"CC[C@H](C)C(NC(=O)N[C@@H](c1ccc(C(F)(F)F)cc1)c1ncccc1C(F)(F)F)C(=O)OC (stereo partly drawn) [Example 99, (3S)-methyl 3-methyl-2-(3-((S)-(4-(trifluoro-methyl)-phenyl)(3-(trifluoro-methyl)-pyridin-2-yl)-methyl)-ureido)-pentanoate (2,2,2-trifluoro-acetate)]"
10,5.65,"COc1cccc2cc([C@H](NC(=O)Nc3cccnc3)c3ncccc3C(F)(F)F)cnc12 [Example 16, (S)-1-((8-methoxy-quinolin-3-yl)-(3-(trifluoro-methyl)-pyridin-2-yl)-methyl)-3-(pyridin-3-yl)-urea]"
11,7.66,"C=CCc1cccnc1[C@@H](NC(=O)Nc1cccnc1)c1ccc(C(F)(F)F)cc1 [Example 43, (S)-1-((3-allylpyridin-2-yl)(4-(trifluoromethyl)phenyl)-methyl)-3-(pyridin-3-yl)urea]"
12,6.44,"COc1cc([N+](=O)[O-])ccc1NC(=O)N[C@@H](c1ccc(C(F)(F)F)cc1)c1ncccc1C(F)(F)F [Example 141, (S)-1-(2-methoxy-4-nitrophenyl)-3-((4-(trifluoro-methyl)-phenyl)(3-(trifluoro-methyl)-pyridin-2-yl)-methyl)urea (2,2,2-trifluoro-acetate)]"
13,5.72,"COc1ccc(CCNC(=O)N[C@@H](c2ccc(C(F)(F)F)cc2)c2ncccc2C(F)(F)F)cc1OC [Example 95, (S)-1-(3,4-dimethoxy-phenethyl)-3-((4-(trifluoro-methyl)-phenyl)(3-(trifluoro-methyl)-pyridin-2-yl)-methyyl)urea (2,2,2-trifluoro-acetate)]"
14,6.72,"COc1ccc(OC)c(CCNC(=O)N[C@@H](c2ccc(C(F)(F)F)cc2)c2ncccc2C(F)(F)F)c1 [Example 110, (S)-1-(2,5-dimethoxy-phenethyl)-3-((4-(trifluoro-methyl)-phenyl)(3-(trifluoro-methyl)-pyridin-2-yl)-methyl)urea (2,2,2-trifluoro-acetate)]"
15,6.48,"O=C(NCc1ccccc1Cl)N[C@@H](c1ccc(C(F)(F)F)cc1)c1ncccc1C(F)(F)F [Example 73, (S)-1-(2-chlorobenzyl)-3-((4-(trifluoro-methyl)-phenyl)(3-(trifluoro-methyl)-pyridin-2-yl)-methyl)urea (2,2,2-trifluoro-acetate)]"
16,6.70,"O=C(NCc1ccccc1F)N[C@@H](c1ccc(C(F)(F)F)cc1)c1ncccc1C(F)(F)F [Example 87, (S)-1-(2-fluorobenzyl)-3-((4-(trifluoro-methyl)-phenyl)(3-(trifluoro-methyl)-pyridin-2-yl)-methyl)urea (2,2,2-trifluoro-acetate)]"
17,6.51,"COc1ccc2cc([C@H](NC(=O)Nc3cccnc3)c3ncccc3C(F)(F)F)cnc2c1 [Example 18, (S)-1-((7-methoxy-quinolin-3-yl)-(3-(trifluoro-methyl)-pyridin-2-yl)-methyl)-3-(pyridin-3-yl)-urea]"
18,5.42,"COc1ccc([C@@H](C)NC(=O)N[C@@H](c2ccc(C(F)(F)F)cc2)c2ncccc2C(F)(F)F)cc1 [Example 130, 1-((R)-1-(4-methoxy-phenyl)ethyl)-3-((S)-(4-(trifluoro-methyl)-phenyl)(3-(trifluoro-methyl)-pyridin-2-yl)-methyl)urea (2,2,2-trifluoro-acetate)]"
19,6.20,"CC(NC(=O)N[C@@H](c1ccc(C(F)(F)F)cc1)c1ncccc1C(F)(F)F)c1ccc(Br)cc1 (stereo partly drawn) [Example 101, 1-(1-(4-bromophenyl)-ethyl)-3-((S)-(4-(trifluoro-methyl)-phenyl)(3-(trifluoro-methyl)-pyridin-2-yl)-methyl)urea (2,2,2-trifluoro-acetate)]"
20,7.06,"O=C(Nc1cccnc1)N[C@@H](c1cnc2c(Cl)cccc2c1)c1ncccc1C(F)(F)F [Example 12, (S)-1-((8-chloroquinolin-3-yl)(3-(trifluoro-methyl)-pyridin-2-yl)-methyl)-3-(pyridin-3-yl)-urea]"
21,5.84,"COc1cc(CCNC(=O)N[C@@H](c2ccc(C(F)(F)F)cc2)c2ncccc2C(F)(F)F)cc(OC)c1 [Example 93, (S)-1-(3,5-dimethoxy-phenethyl)-3-((4-(trifluoro-methyl)-phenyl)(3-(trifluoro-methyl)-pyridin-2-yl)-methyl)urea (2,2,2-trifluoro-acetate)]"
22,5.45,"N#Cc1ccc(NC(=O)N[C@@H](c2ccc(C(F)(F)F)cc2)c2ncccc2C(F)(F)F)cc1 [Example 46, (S)-1-(4-cyanophenyl)-3-((4-(trifluoro-methyl)-phenyl)(3-(trifluoro-methyl)-pyridin-2-yl)-methyl)urea]"
23,6.39,"Cc1ccccc1CNC(=O)N[C@@H](c1ccc(C(F)(F)F)cc1)c1ncccc1C(F)(F)F [Example 85, (S)-1-(2-methylbenzyl)-3-((4-(trifluoro-methyl)-phenyl)(3-(trifluoro-methyl)-pyridin-2-yl)-methyl)urea (2,2,2-trifluoro-acetate)]"
24,6.32,"CC(C)(C)OC(=O)N[C@@H](c1ccc(OC(F)(F)F)c(F)c1)c1ncccc1F [Example 174, (S)-tert-Butyl((3-fluoro-4-(trifluoromethoxy)phenyl)(3-fluoropyridin-2-yl)methyl)carbamate]"
25,6.67,"O=C(Nc1cccnc1)NC(c1ccc(C(F)(F)F)nc1)c1ncccc1C(F)(F)F (stereo not drawn) [Example 25, 1-(pyridin-3-yl)-3-((3-(trifluoro-methyl)-pyridin-2-yl)-(6-(trifluoro-methyl)-pyridin-3-yl)-methyl)urea (2,2,2-trifluoro-acetate)]"
26,6.76,"O=C(Nc1cccs1)N[C@@H](c1ccc(C(F)(F)F)cc1)c1ncccc1C(F)(F)F [Example 113, (S)-1-(thiophen-2-yl)-3-((4-(trifluoro-methyl)-phenyl)(3-(trifluoro-methyl)-pyridin-2-yl)-methyl)urea (2,2,2-trifluoro-acetate)]"
27,6.17,"O=C(NCCc1c(Cl)cccc1Cl)N[C@@H](c1ccc(C(F)(F)F)cc1)c1ncccc1C(F)(F)F [Example 132, (S)-1-(2,6-dichlorophen-ethyl)-3-((4-(trifluoro-methyl)-phenyl)(3-(trifluoro-methyl)-pyridin-2-yl)-methyl)urea (2,2,2-trifluoro-acetate)]"
28,6.63,"Cc1nc(-c2cccc(NC(=O)N[C@@H](c3ccc(C(F)(F)F)cc3)c3ncccc3C(F)(F)F)c2)no1 [Example 77, (S)-1-(3-(5-methyl-1,2,4-oxadiazol-3-yl)phenyl)-3-((4-(trifluoro-methyl)-phenyl)(3-(trifluoro-methyl)-pyridin-2-yl)-methyl)urea (2,2,2-trifluoro-acetate)]"
29,6.15,"Cc1cccc(C(C)C)c1NC(=O)N[C@@H](c1ccc(C(F)(F)F)cc1)c1ncccc1C(F)(F)F [Example 92, (S)-1-(2-isopropyl-6-methylphenyl)-3-((4-(trifluoro-methyl)-phenyl)(3-(trifluoro-methyl)-pyridin-2-yl)-methyl)urea (2,2,2-trifluoro-acetate)]"
30,6.44,"O=C(N[C@@H](c1ccc(C(F)(F)F)cc1)c1ccccn1)OCc1ccccc1 [Example 172, (S)-Benzyl(pyridin-2-yl(4-(trifluoromethyl)phenyl)methyl)-carbamate 2,2,2-trifluoroacetate]"
